Source: patent US10709140B2, “Methods and products for reducing the population size of Papilio demoleus L. (papilionidae)” (The University of The West Indies, priority 2010, dated 2020)

Tests used:
P. demoleus [1] = experiment: Egg laying by P. demoleus on Piper aduncum cuttings sprayed with lime oil or d-limonene (choice test, Example 5); type: in vivo, Papilio demoleus
Experimental: Five P. demoleus pupae were placed in the cage. Upon hatching, the emerging adults were determined to be 3 males and 2 females. The butterflies were allowed to mate and given a choice of plants on which to lay by placing all around the cage unsprayed lime seedlings, unsprayed Piper aduncum cuttings, Piper aduncum cuttings sprayed with lime oil, and Piper aduncum cuttings sprayed with d-limonene. Egg laying was allowed to continue for up a total of 16 days, only the first 8 of which the Piper aduncum shoots remained fresh. Referring to Table 5A, a total of 16 eggs were laid in the first 8 days. The majority of eggs (62.5%) were laid on unsprayed lime plant. However, a significant number of eggs were laid on sprayed Piper aduncum shoots (37.5%). […] No eggs were laid on unsprayed Piper aduncum.
After day 8, the Piper aduncum leaves began to wilt and were noticeably less attractive to gravid females. […] By day 20, no more eggs were laid, and the total number of eggs was counted.
All of the eggs that were laid on lime plant hatched into larvae that fed normally on the lime plant leaves on which they were laid. The 6 eggs laid on Piper aduncum shoots sprayed with lime oil or d-limonene hatched normally. The Piper aduncum shoots were still young, fresh, and otherwise capable of sustaining larvae when the eggs laid eggs on sprayed Piper aduncum shoots hatched. […]

P. demoleus [2] = experiment: Induced egg laying of P. demoleus on Piper amalago var. amalago plant sprayed with lime plant oil (choice test, Example 2); type: in vivo, Papilio demoleus; settings: Piper amalago var. amalago plant sprayed with the attractant
Text: P. demoleus were induced to lay eggs on Piper amalago var. amalago plant to confirm its unsuitability to sustain target insects and to determine whether it could be used to reduce the population size of target insects. Natural Piper amalago var. amalago plant was considered a suitable non-host plant because P. demoleus would not feed or breed on it in the wild.
Twelve pupae bred on lime plants were placed in the laying cage and were allowed to mate. Gravid females were given a choice of plants on which to lay: unsprayed lime, unsprayed Piper amalago var. amalago plant, and Piper amalago var. amalago plant sprayed with lime plant oil. Piper amalago var. amalago plant sprayed with lime plant oil was prepared using an aerosol spray containing 0.45% by weight lime plant oil in a hydrocarbon mixture. The aerosol mixture was applied to the young leaves of Piper amalago var. amalago plants twice daily.
Gravid females were allowed to lay eggs until the laying subsided on the tenth day. Of the 95 eggs laid, the majority were laid on Piper amalago var. amalago plant sprayed with lime oil. Sixty-one eggs, or 64%, were laid on Piper amalago var. amalago plant sprayed with lime oil. Only 34 eggs, or 36%, were laid on unsprayed lime plant. No eggs were laid on unsprayed Piper amalago var. amalago plant. […]

With `C=C(C)[C@H]1CC=C(C)CC1` [d-limonene] the “eggs laid on sprayed Piper aduncum” value (P. demoleus [1]; Days 1-8, choice vs unsprayed lime and unsprayed Piper aduncum, total 16 eggs) was 3 eggs, the “eggs laid on sprayed Piper aduncum” value (P. demoleus [1]; Days 9-20 as titled, total 39 eggs) was 3 eggs and the “breeding and feeding on sprayed Piper amalago var. amalago plants” value (P. demoleus [2]) was “majority of the P. demoleus population was induced to breed, but not feed”.
